Measurements taken from publication PMC9181915, “Synthesis and Anti-Neuroinflammatory Activity of 1,7-diphenyl-1,4-heptadien-3-ones in LPS-Stimulated BV2 Microglia Via Inhibiting NF-κB/MAPK Signaling Pathways” (Molecules, 2022).

Experiments:
iNOS = assay: LPS-induced iNOS expression in BV2 cells (Western blot); assay type: cell-based; settings: 3 μM, 1 h pretreatment, LPS 1 μg/mL 24 h
Procedure: (§1) CU-19, CU-21 and LPS were configured with DMEM medium (2% FBS). The cells were collected and washed three times with ice-cold PBS. The lysate (containing 1% protease inhibitor and phosphatase inhibitor) was added to the collected cells for suspension, and the cells were lysed by ultrasonic crusher. Then the cell lysates were centrifuged (14,000 rpm, 10 min, 4 °C) […] and collect the supernatant. Aliquots of the lysates were separated on 10% sodium dodecyl sulphate (SDS)-polyacrylamide gel electrophoresis (PAGE) and then electro blotted onto a polyvinylidene difluoride (PVDF) membrane. The blots were blocked with 5% (w/v) nonfat dry milk for 2 h at room temperature, followed by incubation with specific primary antibodies at 4 °C overnight. Blots were washed with PBST and incubated with secondary antibody for 2 h, after which an ECL reagent was used for chemiluminescent detection.

[1] = In vivo pharmacokinetic study in rats; design: species or system Sprague–Dawley male rats; settings: for AUC(0-inf) / AUC(0-t) / Cmax / half-life / MRT last / MRT inf: male, Sprague-Dawley, rat plasma, mean ± SD, n = 4; for AUC(0-inf) / AUC(0-t) / Cmax / half-life / MRT last / MRT inf / Increase of T1/2 in comparison with that of CU: single intravenous dose 20 mg/kg; for MRT last: read-out: MRT (0-t) (converted); for MRT inf: read-out: MRT (0-∞) (converted); for Metabolites detected in plasma by HPLC: rat plasma after intravenous 20 mg/kg, chromatograms at 5, 10, 20 min (Figures S1–S9); for Increase of T1/2 in comparison with that of CU: rat
Procedure: After a single intravenous dose of 20 mg/kg, 0.5 mL of blood was obtained from the fossa orbitalis veniplex of rats at 5, 10, 20, 30, 45, 60, 120, 180 and 240 min. HPLC was used to determine the concentration of each compound in plasma and the DAS software was used for the noncompartmental pharmacokinetic analysis of the plasma concentration–time data.
Sprague–Dawley male rats, 200–240 g, were housed in cages in an airconditioned room with light dark cycle of 12 h before the experiment started. The animals were fasted for 12 h with water ad libitum. […] The administration volume was 6 mL per kg of body weight. The compounds were dissolved in PEG400 (10% of the administration volume) and water (90% of the administration volume) and sonicated for 30 min. After tail vein injection administration at a dose of 20 mg/kg, 0.5 mL blood was obtained from fossa orbitalis veniplex of rats at 5, 10, 20, 30, 45, 60, 120, 180 and 240 min. Whole blood samples were collected in heparinized tubes and the plasma was immediately centrifuged (10,000 rpm, 10 min, 4 °C) and then stored at −20 °C until analysis. The calibration standards and the plasma samples were extracted by protein precipitation using methanol.

p38 = assay: LPS-induced p38 phosphorylation in BV2 cells (Western blot); assay type: cell-based; settings: 3 μM, 1 h pretreatment, LPS 1 μg/mL 24 h
Procedure: as §1

[2] = tested on: LPS-induced NO release in BV2 cells; assay: Inhibition of LPS-induced NO release in BV2 cells; assay type: cell-based; settings: Mus musculus, BV-2; for inhibition at 3 µM: pretreated 1 h, then LPS 1 μg/mL for 24 h, BV2 cells; for IC50: BV2 cells, 0.3, 1.0, 3.0 μM, LPS 1 μg/mL 24 h, mean ± SD, n = 3, read-out: IC50 to inhibit LPS-induced NO release
Procedure: (§2) The BV2 microglial cells were purchased from the China Center for Type Culture Collection, CCTCC (Wuhan, Hubei). BV2 microglia cells were incubated in DMEM media supplemented with 10% (v/v) FBS, 100 U/mL penicillin G and […] streptomycin at 37 °C with 5% CO2.
Nitrite, a stable product of nitric oxide, was used to assess NO production. To study the effects of the compounds on NO production, BV2 microglia cells in the logarithmic phase were plated at 1 × 10^5 cells/well in a 24-well microplate and incubated in DMEM medium (10% FBS) overnight. The cells were pretreated with various concentrations of the test compounds for 1 h and further co-cultured with 1 μg/mL LPS and 5% CO2 for 24 h in a 37 °C incubator; then, the supernatant was taken and stored at −20 °C for NO detection. The target compound and LPS were configured with DMEM medium (2% FBS). The determination of NO was carried out according to the instructions. Unpretreated and unstimulated BV2 microglia cells were conducted as the blank control group. The absorbance value was determined at 540 nm, and the corresponding NO content was calculated by using the standard curve. The NO inhibitory rate of the various concentrations of agents in BV2 cells was calculated as per the following formula:Inhibition rate (%) = (LPS(NO concentration) − sample(NO concentration))/(LPS(NO concentration) − negative control(NO concentration)) × 100%.

PGE-2 = assay: LPS-induced PGE-2 release in BV2 cells (ELISA); assay type: cell-based, mouse; settings: 3 µM, 1 h pretreatment, LPS 1 μg/mL 24 h, vs. LPS alone
Procedure: (§3) BV2 microglia cells were seeded at 1 × 10^5 cells/well in a 24-well microplate and incubated overnight. […] CU-19, CU-21 and LPS were configured with DMEM medium (2% FBS). According to the protocol of the manufacturer, supernatant was harvested at the 24th hour for the assay of IL-6, TNF-α and PGE-2 with ELISA kits (Absin Shanghai, China). Briefly, 100 μL of biotinylated antibody reagent and the culture supernatant were added to anti-mouse IL-6, TNF-α and PGE-2-precoated 96-well plates, and the plates were incubated for 2.5 h at room temperature. The plate was washed with a washing buffer and subsequently incubated with 100 μL of the streptavidin–HRP solution for 20 min at room temperature. The plate was washed and incubated with 100 μL of TMB substrate solution for 20 min at room temperature in the dark. The reaction was stopped by adding 50 μL of stop solution, and then the absorbance was measured at 450 nm by a plate reader. The average value was substituted into the standard curve to obtain the […] concentration.

COX-2 = assay: LPS-induced COX-2 expression in BV2 cells (Western blot); assay type: cell-based; settings: 3 μM, 1 h pretreatment, LPS 1 μg/mL 24 h
Procedure: as §1

[3] = MTT cell viability assay in BV2 microglia cells; assay type: cell-based; settings: mouse, mean ± SD, n = 3
Procedure: as §2
Cell viability assays were evaluated using a 3-(4,5-dimethylthiazol-2-yl)-2,5-diphenyltetrazolium bromide (MTT) assay. BV2 microglia cells were seeded in 96-well plates at a density of 1.6 × 10^5 cells/well in complete medium and incubated for 24 h. Then, the culture medium was sucked and discarded, and sterile PBS was added for washing, and then PBS was removed. Then the cells were treated with different concentrations of target compounds for 24 h. An amount equal to 100 μL of MTT was added to each well and the cells were further incubated for 2–4 h. An amount equal to 150 μL of DMSO was added into a 96-well plate and vibrated with micro-oscillator for 10 min. The optical density (A) was measured at […] on a microplate reader. The inhibitory rate of the various concentrations of agents in BV2 cells was calculated using the following formula:Cell viability (%) = [A492 (sample) − A492 (blank)]/[A492 (control) − A492 (blank)] × 100%

TNF-α = assay: LPS-induced TNF-α release in BV2 cells (ELISA); assay type: cell-based, mouse; settings: 3 µM, 1 h pretreatment, LPS 1 μg/mL 24 h, vs. LPS alone
Procedure: as §3

IL-6 = assay: LPS-induced IL-6 release in BV2 cells (ELISA); assay type: cell-based, mouse; settings: 3 µM, 1 h pretreatment, LPS 1 μg/mL 24 h, vs. LPS alone
Procedure: as §3

JNK = assay: LPS-induced JNK phosphorylation in BV2 cells (Western blot); assay type: cell-based; settings: 3 μM, 1 h pretreatment, LPS 1 μg/mL 24 h
Procedure: as §1

NF-κB = assay: LPS-induced NF-κB nuclear translocation in BV2 cells (immunofluorescence); assay type: cell-based; settings: 3 μM with LPS, 24 h
Procedure: CU-19, CU-21 and LPS were configured with DMEM medium (2% FBS). After 24 h of treatment, cells were fixed with 4% paraformaldehyde for 18 min and washed three times with PBS (5 min per wash). The fixed cells were then permeabilized in […] for 15 min and washed three times with PBS (5 min per wash). Nonspecific binding sites were blocked with 5% goat serum for 30 min. These cells were then incubated with anti-NF-κB antibody at a dilution of 1:400 overnight at 4 °C. After washing with PBS three times, cells were incubated with fluorescent-conjugated secondary antibody (1:150) for 1 h, and counterstained with DAPI (1:50) at room temperature for 15 min in the dark. Cells were then washed and imaged via confocal microscopy.

ERK = assay: LPS-induced ERK phosphorylation in BV2 cells (Western blot); assay type: cell-based; settings: 3 μM, 1 h pretreatment, LPS 1 μg/mL 24 h
Procedure: as §1

| SMILES | Inhibition of LPS-induced iNOS expression (iNOS) | AUC(0-inf) [1] | AUC(0-t) [1] | Cmax [1] | half-life [1] | MRT last [1] | MRT inf [1] | Metabolites detected in plasma by HPLC [1] | Increase of T1/2 in comparison with that of CU [1] | p38 phosphorylation compared to the LPS group (p38) | inhibition at 3 µM [2] | IC50 [2] | Inhibition of LPS-induced PGE-2 release (PGE-2) | Inhibition of LPS-induced COX-2 expression (COX-2) | viability at 24 h, 1 µM [3] | viability at 24 h, 3 µM [3] | viability at 24 h, 10 µM [3] | Inhibition of LPS-induced TNF-α release (TNF-α) | Inhibition of LPS-induced IL-6 release (IL-6) | JNK phosphorylation compared to the LPS group (JNK) | further results |
| --- | --- | --- | --- | --- | --- | --- | --- | --- | --- | --- | --- | --- | --- | --- | --- | --- | --- | --- | --- | --- | --- |
| COc1ccc(CC/C=C/C(=O)/C=C/c2ccccc2)cc1 [CU-21, (1E,4E)-7-(4-methoxyphenyl)-1-phenyl-1,4-heptadien-3-one] | significantly inhibited | 3530 ng·h/mL | 2830 ng·h/mL | 6850 ± 634 ng/mL | 2.72 ± 0.613 h | 0.757 h | 2.32 h | no obvious metabolites | 5.5 fold | significantly decreased | 66.1% | 1740 ± 660 nM | significantly inhibited | significantly inhibited | 96.94 ± 0.01% | 94.55 ± 0.09% | 77.89 ± 0.5% | significantly inhibited | significantly inhibited | significantly decreased | melting point: 58 to 60 °C; Inhibition of LPS-induced NF-κB nuclear translocation (NF-κB): able to inhibit NF-κB nuclear translocation; ERK phosphorylation compared to the LPS group (ERK): significantly decreased |
| COc1ccc(/C=C/C(=O)/C=C/CCc2ccccc2)cc1OC [CU-19, (1E,4E)-1-(3,4-dimethoxyphenyl)-7-phenyl-1,4-heptadien-3-one] | significantly inhibited | 2220 ng·h/mL | 1770 ng·h/mL | 3330 ± 393 ng/mL | 2.25 ± 0.104 h | 1.02 h | 2.12 h | no obvious metabolites | 4.5 fold | significantly decreased | 50.3% | 1600 ± 310 nM | significantly inhibited | significantly inhibited | 96.94 ± 0.03% | 96.33 ± 0.02% | 67.91 ± 0.37% | significantly inhibited | significantly inhibited | significantly decreased | Inhibition of LPS-induced NF-κB nuclear translocation (NF-κB): able to inhibit NF-κB nuclear translocation; ERK phosphorylation compared to the LPS group (ERK): significantly decreased |
